Assay results: patent publication US6355799B1, “Substituted benzene compounds, process for their preparation, and herbicidal and defoliant compositions containing them” (ISK Americas Incorporated, priority 1997, dated 2002)

Legend:
Type in all cases: in vivo
[1] = tested on: barnyardgrass (Echinochloa crus-galli, ECHCG); assay: Post-emerge test, greenhouse herbicide activity screening; conditions: post-emerge, phytotoxicity rating 0-100 at 14 days after application
Summary of the method: (§1)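 Compounds in acetone were track-sprayed at 15-1000 g ai/ha (187 l/ha) on sandy loam pots: pre-emerge one day after seeding, post-emerge at 2-3 leaf stage with 0.25% v/v non-ionic surfactant. Phytotoxicity was rated 14 days later on a 0 (no damage) to 100 (complete death) scale.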

[2] = tested on: large crabgrass (Digitaria sanguinalis, DIGSA); assay: as above; conditions: post-emerge, phytotoxicity rating 0-100 at 14 days after application
Summary of the method: as §1

[3] = tested on: velvetleaf (Abutilon theophrasti, ABUTH); assay: as above; conditions: post-emerge, phytotoxicity rating 0-100 at 14 days after application
Summary of the method: as §1

[4] = tested on: sicklepod (Cassia obtusifolia, CASOB); assay: as above; conditions: post-emerge, phytotoxicity rating 0-100 at 14 days after application
Summary of the method: as §1

[5] = tested on: lambsquarters (Chenopodium album, CHEAL); assay: as above; conditions: post-emerge, phytotoxicity rating 0-100 at 14 days after application
Summary of the method: as §1

[6] = tested on: johnsongrass (Sorghum halepense, SORHA); assay: as above; conditions: post-emerge, phytotoxicity rating 0-100 at 14 days after application
Summary of the method: as §1

[7] = tested on: redroot pigweed (Amaranthus retroflexus, AMARE); assay: as above; conditions: post-emerge, phytotoxicity rating 0-100 at 14 days after application
Summary of the method: as §1

[8] = tested on: ivyleaf morningglory (Ipomoea hederacea, IPOHE); assay: as above; conditions: post-emerge, phytotoxicity rating 0-100 at 14 days after application
Summary of the method: as §1

[9] = tested on: green foxtail (Setaria viridis, SETVI); assay: as above; conditions: post-emerge, phytotoxicity rating 0-100 at 14 days after application
Summary of the method: as §1

[10] = tested on: field corn (Zea mays L., var. Dekalb 535, CORN); assay: Post-emerge test, crop safety; conditions: post-emerge, crop damage rating 0-100 at 14 days after application
Summary of the method: (§2)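 Sandy loam pots; pre-emerge: sown 1 d pre-spray, surface-watered after, then bottom-watered. Post-emerge: sown 8–21 d before, 2–3 leaf stage, + 0.25% v/v NIS, bottom-watered. Acetone, 187 l/ha track spray, 15–1000 g ai/ha. 0–100 injury score, day 14.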

[11] = tested on: upland rice (Oryza sp., var. Tebonnet, RICE); assay: Post-emerge test, crop safety; conditions: post-emerge, crop damage rating 0-100 at 14 days after application
Summary of the method: as §2

[12] = tested on: redroot pigweed (Amaranthus retroflexus, AMARE); assay: Pre-emerge test, greenhouse herbicide activity screening; conditions: pre-emerge, phytotoxicity rating 0-100 at 14 days after application
Summary of the method: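 Rating: 0–100 visual injury, 14 DAA. Application: acetone, 187 l/ha, 15–1000 g ai/ha, flat-fan track sprayer with nozzle 40–45 cm above soil or canopy. Post-emerge runs used 0.25% v/v surfactant on 2–3 leaf plants.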

[13] = tested on: field corn (Zea mays L., var. Dekalb 535, CORN); assay: Pre-emerge test, crop safety; conditions: crop damage, pre-emerge, phytotoxicity rating 0-100 at 14 days after application
Summary of the method: (§3)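 Plants grown in 10 cm pots of sandy loam mix received acetone-dissolved compounds through a moving flat-fan nozzle. Doses ranged from 15 to 1000 g ai/ha. Pre-emerge pots were seeded one day earlier, post-emerge pots 8–21 days earlier. Fourteen days on, each pot was graded 0–100 for damage.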

[14] = tested on: upland rice (Oryza sp., var. Tebonnet, RICE); assay: Pre-emerge test, crop safety; conditions: crop damage, pre-emerge, phytotoxicity rating 0-100 at 14 days after application
Summary of the method: as §3

[15] = tested on: barnyardgrass (Echinochloa crus-galli, ECHCG); assay: Pre-emerge test, greenhouse herbicide activity screening; conditions: pre-emerge, phytotoxicity rating 0-100 at 14 days after application
Summary of the method: as §2

[16] = tested on: large crabgrass (Digitaria sanguinalis, DIGSA); assay: as above; conditions: pre-emerge, phytotoxicity rating 0-100 at 14 days after application
Summary of the method: as §2

[17] = tested on: velvetleaf (Abutilon theophrasti, ABUTH); assay: as above; conditions: pre-emerge, phytotoxicity rating 0-100 at 14 days after application
Summary of the method: as §2

[18] = tested on: sicklepod (Cassia obtusifolia, CASOB); assay: as above; conditions: pre-emerge, phytotoxicity rating 0-100 at 14 days after application
Summary of the method: as §2

[19] = tested on: lambsquarters (Chenopodium album, CHEAL); assay: as above; conditions: pre-emerge, phytotoxicity rating 0-100 at 14 days after application
Summary of the method: as §2

[20] = tested on: ivyleaf morningglory (Ipomoea hederacea, IPOHE); assay: as above; conditions: pre-emerge, phytotoxicity rating 0-100 at 14 days after application
Summary of the method: as §2

[21] = tested on: green foxtail (Setaria viridis, SETVI); assay: as above; conditions: pre-emerge, phytotoxicity rating 0-100 at 14 days after application
Summary of the method: as §2

COc1cccc(COC(=O)Nc2c(C)c(Cl)cc(F)c2-n2c(=O)cc(C(F)(F)F)n(C)c2=O)c1 [4-65]
55: Pre-emerge Herbicidal Activity CORN ([13]; rate 63 g ai/ha)
75: Pre-emerge Herbicidal Activity CORN ([13]; rate 250 g ai/ha)
70: Post-emerge Herbicidal Activity ECHCG ([1]; 250 g ai/ha) | Post-emerge Herbicidal Activity SORHA ([6]; 63 g ai/ha) | Post-emerge Herbicidal Activity RICE ([11]; 63 g ai/ha)
100: Post-emerge Herbicidal Activity ABUTH ([3]; 63 g ai/ha) | Post-emerge Herbicidal Activity ABUTH ([3]; 250 g ai/ha) | Post-emerge Herbicidal Activity CASOB ([4]; 63 g ai/ha) | Post-emerge Herbicidal Activity CASOB ([4]; 250 g ai/ha) | Post-emerge Herbicidal Activity CHEAL ([5]; 63 g ai/ha) | Post-emerge Herbicidal Activity CHEAL ([5]; 250 g ai/ha) | Post-emerge Herbicidal Activity AMARE ([7]; 63 g ai/ha) | Post-emerge Herbicidal Activity AMARE ([7]; 250 g ai/ha) | Post-emerge Herbicidal Activity IPOHE ([8]; 63 g ai/ha) | Post-emerge Herbicidal Activity IPOHE ([8]; 250 g ai/ha) | Post-emerge Herbicidal Activity SETVI ([9]; 63 g ai/ha) | Post-emerge Herbicidal Activity SETVI ([9]; 250 g ai/ha) | Pre-emerge Herbicidal Activity AMARE ([12]; rate 63 g ai/ha) | Pre-emerge Herbicidal Activity AMARE ([12]; rate 250 g ai/ha) | Pre-emerge Herbicidal Activity DIGSA ([16]; rate 63 g ai/ha) | Pre-emerge Herbicidal Activity DIGSA ([16]; rate 250 g ai/ha) | Pre-emerge Herbicidal Activity ABUTH ([17]; rate 63 g ai/ha) | Pre-emerge Herbicidal Activity ABUTH ([17]; rate 250 g ai/ha) | Pre-emerge Herbicidal Activity CHEAL ([19]; rate 63 g ai/ha) | Pre-emerge Herbicidal Activity CHEAL ([19]; rate 250 g ai/ha) | Pre-emerge Herbicidal Activity IPOHE ([20]; rate 250 g ai/ha) | Pre-emerge Herbicidal Activity SETVI ([21]; rate 63 g ai/ha) | Pre-emerge Herbicidal Activity SETVI ([21]; rate 250 g ai/ha)
65: Pre-emerge Herbicidal Activity RICE ([14]; rate 63 g ai/ha)
90: Post-emerge Herbicidal Activity CORN ([10]; 250 g ai/ha) | Pre-emerge Herbicidal Activity RICE ([14]; rate 250 g ai/ha) | Pre-emerge Herbicidal Activity ECHCG ([15]; rate 250 g ai/ha) | Pre-emerge Herbicidal Activity CASOB ([18]; rate 250 g ai/ha) | Pre-emerge Herbicidal Activity IPOHE ([20]; rate 63 g ai/ha)
80: Post-emerge Herbicidal Activity DIGSA ([2]; 250 g ai/ha) | Post-emerge Herbicidal Activity SORHA ([6]; 250 g ai/ha) | Post-emerge Herbicidal Activity CORN ([10]; 63 g ai/ha) | Post-emerge Herbicidal Activity RICE ([11]; 250 g ai/ha) | Pre-emerge Herbicidal Activity ECHCG ([15]; rate 63 g ai/ha) | Pre-emerge Herbicidal Activity CASOB ([18]; rate 63 g ai/ha)
60: Post-emerge Herbicidal Activity ECHCG ([1]; 63 g ai/ha) | Post-emerge Herbicidal Activity DIGSA ([2]; 63 g ai/ha)

Cc1c(Cl)cc(F)c(-n2c(=O)cc(C(F)(F)F)n(C)c2=O)c1NC(=O)SCc1ccccc1 [4-66]
65: Pre-emerge Herbicidal Activity RICE ([14]; rate 250 g ai/ha)
90: Post-emerge Herbicidal Activity CASOB ([4]; 250 g ai/ha) | Pre-emerge Herbicidal Activity ECHCG ([15]; rate 250 g ai/ha) | Pre-emerge Herbicidal Activity IPOHE ([20]; rate 250 g ai/ha)
70: Post-emerge Herbicidal Activity RICE ([11]; 250 g ai/ha) | Pre-emerge Herbicidal Activity CASOB ([18]; rate 250 g ai/ha) | Pre-emerge Herbicidal Activity SETVI ([21]; rate 63 g ai/ha)
10: Post-emerge Herbicidal Activity DIGSA ([2]; 63 g ai/ha) | Post-emerge Herbicidal Activity SETVI ([9]; 63 g ai/ha)
15: Post-emerge Herbicidal Activity CORN ([10]; 63 g ai/ha)
80: Post-emerge Herbicidal Activity CHEAL ([5]; 63 g ai/ha) | Post-emerge Herbicidal Activity AMARE ([7]; 63 g ai/ha) | Pre-emerge Herbicidal Activity DIGSA ([16]; rate 63 g ai/ha)
20: Post-emerge Herbicidal Activity CASOB ([4]; 63 g ai/ha) | Pre-emerge Herbicidal Activity RICE ([14]; rate 63 g ai/ha)
30: Post-emerge Herbicidal Activity RICE ([11]; 63 g ai/ha) | Pre-emerge Herbicidal Activity ECHCG ([15]; rate 63 g ai/ha) | Pre-emerge Herbicidal Activity CASOB ([18]; rate 63 g ai/ha)
100: Post-emerge Herbicidal Activity ABUTH ([3]; 63 g ai/ha) | Post-emerge Herbicidal Activity ABUTH ([3]; 250 g ai/ha) | Post-emerge Herbicidal Activity CHEAL ([5]; 250 g ai/ha) | Post-emerge Herbicidal Activity AMARE ([7]; 250 g ai/ha) | Post-emerge Herbicidal Activity IPOHE ([8]; 63 g ai/ha) | Post-emerge Herbicidal Activity IPOHE ([8]; 250 g ai/ha) | Pre-emerge Herbicidal Activity AMARE ([12]; rate 63 g ai/ha) | Pre-emerge Herbicidal Activity AMARE ([12]; rate 250 g ai/ha) | Pre-emerge Herbicidal Activity DIGSA ([16]; rate 250 g ai/ha) | Pre-emerge Herbicidal Activity ABUTH ([17]; rate 63 g ai/ha) | Pre-emerge Herbicidal Activity ABUTH ([17]; rate 250 g ai/ha) | Pre-emerge Herbicidal Activity CHEAL ([19]; rate 63 g ai/ha) | Pre-emerge Herbicidal Activity CHEAL ([19]; rate 250 g ai/ha) | Pre-emerge Herbicidal Activity SETVI ([21]; rate 250 g ai/ha)
0: Post-emerge Herbicidal Activity ECHCG ([1]; 63 g ai/ha) | Post-emerge Herbicidal Activity SORHA ([6]; 63 g ai/ha) | Pre-emerge Herbicidal Activity CORN ([13]; rate 63 g ai/ha)
40: Post-emerge Herbicidal Activity ECHCG ([1]; 250 g ai/ha)
60: Post-emerge Herbicidal Activity SETVI ([9]; 250 g ai/ha) | Post-emerge Herbicidal Activity CORN ([10]; 250 g ai/ha) | Pre-emerge Herbicidal Activity IPOHE ([20]; rate 63 g ai/ha)
50: Post-emerge Herbicidal Activity DIGSA ([2]; 250 g ai/ha) | Post-emerge Herbicidal Activity SORHA ([6]; 250 g ai/ha) | Pre-emerge Herbicidal Activity CORN ([13]; rate 250 g ai/ha)
